In ChEMBL document CHEMBL1150977, “A quantitative analysis of kinase inhibitor selectivity” (Nat Biotechnol, 2008):

Key:
[1] = biological target: Tyrosine-protein kinase ABL1 (Homo sapiens, UniProt P00519, E255K)
[2] = biological target: Ephrin type-A receptor 2 (Homo sapiens, UniProt P29317)
[3] = biological target: T1, MAP/microtubule affinity-regulating kinase 4 (Homo sapiens, UniProt Q96L34)
T1 sequence (Q96L34 whole entry): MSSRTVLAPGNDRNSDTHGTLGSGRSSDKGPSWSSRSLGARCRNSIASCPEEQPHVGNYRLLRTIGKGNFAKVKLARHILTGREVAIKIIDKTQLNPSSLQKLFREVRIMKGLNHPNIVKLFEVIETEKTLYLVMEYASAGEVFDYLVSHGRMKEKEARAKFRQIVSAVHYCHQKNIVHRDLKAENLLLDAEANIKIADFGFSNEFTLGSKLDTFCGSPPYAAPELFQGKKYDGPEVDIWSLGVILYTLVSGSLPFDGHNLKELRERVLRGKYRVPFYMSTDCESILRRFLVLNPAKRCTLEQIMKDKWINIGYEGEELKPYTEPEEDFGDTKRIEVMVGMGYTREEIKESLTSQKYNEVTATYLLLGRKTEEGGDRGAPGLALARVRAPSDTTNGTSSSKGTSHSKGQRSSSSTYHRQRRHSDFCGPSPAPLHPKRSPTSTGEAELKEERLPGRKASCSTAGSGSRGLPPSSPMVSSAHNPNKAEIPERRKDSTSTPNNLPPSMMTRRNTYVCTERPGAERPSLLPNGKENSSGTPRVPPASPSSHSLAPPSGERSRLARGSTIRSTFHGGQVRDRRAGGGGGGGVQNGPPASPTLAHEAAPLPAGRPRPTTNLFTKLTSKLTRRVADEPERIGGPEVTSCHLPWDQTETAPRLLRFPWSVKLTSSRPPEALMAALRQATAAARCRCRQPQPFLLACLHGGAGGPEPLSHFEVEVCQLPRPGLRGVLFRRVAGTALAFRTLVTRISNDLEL

[4] = biological target: cAMP-dependent protein kinase catalytic subunit alpha (Homo sapiens, UniProt P17612)
[5] = biological target: T2, Serine/threonine-protein kinase PLK4 (Homo sapiens, UniProt O00444)
T2 sequence (O00444 whole entry): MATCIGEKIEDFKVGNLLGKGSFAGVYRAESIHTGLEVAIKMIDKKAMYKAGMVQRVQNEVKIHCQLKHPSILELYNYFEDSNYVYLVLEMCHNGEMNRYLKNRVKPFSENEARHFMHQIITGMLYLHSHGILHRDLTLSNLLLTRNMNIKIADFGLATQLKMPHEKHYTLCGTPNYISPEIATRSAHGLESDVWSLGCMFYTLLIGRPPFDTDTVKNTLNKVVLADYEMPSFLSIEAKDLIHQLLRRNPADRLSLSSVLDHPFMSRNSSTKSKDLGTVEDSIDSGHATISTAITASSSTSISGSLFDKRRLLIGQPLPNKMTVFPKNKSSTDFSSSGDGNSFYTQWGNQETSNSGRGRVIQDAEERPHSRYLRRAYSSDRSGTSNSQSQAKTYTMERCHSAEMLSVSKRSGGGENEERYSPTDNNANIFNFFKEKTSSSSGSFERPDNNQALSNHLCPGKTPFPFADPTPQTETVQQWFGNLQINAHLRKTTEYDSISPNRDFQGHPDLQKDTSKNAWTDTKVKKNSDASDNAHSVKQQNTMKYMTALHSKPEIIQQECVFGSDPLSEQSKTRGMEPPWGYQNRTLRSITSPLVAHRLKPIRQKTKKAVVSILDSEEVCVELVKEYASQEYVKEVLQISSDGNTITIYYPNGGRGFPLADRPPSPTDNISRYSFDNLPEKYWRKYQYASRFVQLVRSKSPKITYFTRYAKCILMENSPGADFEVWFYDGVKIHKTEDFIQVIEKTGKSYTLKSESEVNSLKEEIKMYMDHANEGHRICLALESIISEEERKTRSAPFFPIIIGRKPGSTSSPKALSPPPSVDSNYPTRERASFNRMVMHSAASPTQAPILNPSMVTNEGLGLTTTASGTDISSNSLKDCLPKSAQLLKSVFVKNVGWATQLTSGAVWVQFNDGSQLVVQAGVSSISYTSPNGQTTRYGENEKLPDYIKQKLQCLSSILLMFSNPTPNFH

[6] = biological target: Proto-oncogene tyrosine-protein kinase Src (Homo sapiens, UniProt P12931)
[7] = biological target: T3, Mitogen-activated protein kinase kinase kinase kinase 3 (Homo sapiens, UniProt Q8IVH8)
T3 sequence (Q8IVH8 whole entry): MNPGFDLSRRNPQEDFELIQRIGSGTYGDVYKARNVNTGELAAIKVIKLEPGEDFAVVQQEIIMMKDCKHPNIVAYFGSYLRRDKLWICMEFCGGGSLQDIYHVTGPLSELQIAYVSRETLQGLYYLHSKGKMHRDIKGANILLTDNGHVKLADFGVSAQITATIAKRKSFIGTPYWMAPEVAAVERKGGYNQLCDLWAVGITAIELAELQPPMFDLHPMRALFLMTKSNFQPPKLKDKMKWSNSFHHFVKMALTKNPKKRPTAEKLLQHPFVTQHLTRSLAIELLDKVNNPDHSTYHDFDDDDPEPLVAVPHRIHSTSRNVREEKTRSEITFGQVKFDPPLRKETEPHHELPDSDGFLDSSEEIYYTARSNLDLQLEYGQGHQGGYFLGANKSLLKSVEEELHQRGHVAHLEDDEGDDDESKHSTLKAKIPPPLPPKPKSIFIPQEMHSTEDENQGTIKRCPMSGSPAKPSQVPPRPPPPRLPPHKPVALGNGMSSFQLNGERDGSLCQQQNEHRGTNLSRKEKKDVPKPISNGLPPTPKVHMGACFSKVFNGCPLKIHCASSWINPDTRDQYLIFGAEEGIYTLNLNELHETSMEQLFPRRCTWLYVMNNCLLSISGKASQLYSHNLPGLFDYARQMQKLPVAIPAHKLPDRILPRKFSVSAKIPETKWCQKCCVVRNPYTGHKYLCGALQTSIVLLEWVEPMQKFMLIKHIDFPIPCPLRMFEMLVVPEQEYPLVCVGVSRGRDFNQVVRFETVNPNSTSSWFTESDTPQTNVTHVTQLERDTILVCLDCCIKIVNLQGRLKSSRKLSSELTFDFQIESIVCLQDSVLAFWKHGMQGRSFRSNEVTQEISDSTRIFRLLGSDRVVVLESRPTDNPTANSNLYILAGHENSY

[8] = biological target: Serine/threonine-protein kinase 26 (Homo sapiens, UniProt Q9P289)
[9] = biological target: Phosphatidylinositol 4,5-bisphosphate 3-kinase catalytic subunit alpha isoform (Homo sapiens, UniProt P42336, E545K)
[10] = biological target: Cyclin-dependent kinase 19 (Homo sapiens, UniProt Q9BWU1)

Row | Compound | Kd [1] [µM] | Kd [2] [µM] | Kd [3] [µM] | Kd [4] [µM] | Kd [5] [µM] | Kd [6] [µM] | Kd [7] [µM] | Kd [8] [µM] | Kd [9] [µM] | Kd [10] [µM]
1 | COCC(=O)NC/C=C/c1ccc2ncnc(Nc3ccc(Oc4ccc(C)nc4)c(C)c3)c2c1 [CP-724714] | > 10 | > 10 | > 10 | > 10 | > 10 | > 10 | > 10 | > 10 |  | 
2 | Nc1nc(Nc2ccc(S(N)(=O)=O)cc2)nn1C(=O)c1c(F)cccc1F [JNJ-7706621] |  | > 10 |  |  | 0.12 | > 10 |  |  | > 10 | > 10
3 | CCOc1cc2ncc(C#N)c(Nc3ccc(F)c(Cl)c3)c2cc1NC(=O)/C=C/CN(C)C [PELITINIB] |  | > 10 | > 10 | > 10 | > 10 |  |  | > 10 | > 10 | > 10
4 | Oc1ccc(-c2nc(-c3ccncc3)c(-c3ccc(F)cc3)[nH]2)cc1 [SB-202190] | > 10 | > 10 | > 10 |  | > 10 | > 10 | > 10 | > 10 | > 10 | > 10
5 | NC(=O)c1ccc(-c2nc(-c3ccc4c(c3)OCO4)c(-c3ccccn3)[nH]2)cc1 [SB-431542] | > 10 | > 10 | > 10 | > 10 | > 10 | > 10 | > 10 | > 10 | > 10 | > 10
